Here are results for 32 compounds from the METLIN SMRT retention time set (Domingo-Almenara et al. 2019).

The series can be described thus: gradient 5% acetonitrile 3 min, to 50% in 2 min, to 85% in 15 min, held 3 min, 100 µL/min. The settings on record: column: Zorbax Extend-C18 2.1 x 50 mm; eluents: water / acetonitrile, 0.1% formic acid. The method, boiled down:
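Retention times of pure standards were taken from adduct peaks that were selected by computer and manually inspected. Over 3 months, mixtures of ~100 molecules were run by HPLC–quadrupole time-of-flight mass spectrometry in positive and negative ionization mode. The Zorbax Extend-C18 column (2.1 × 50 mm, 1.8 μm) ran at 100 μL/min in water and acetonitrile, each containing 0.1% formic acid, with 40 μL dead volume and 900 μL dwell volume.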
`Cc1nc(C)c(C(=O)N2CCC(n3c(C)cnc3C3CCC3)CC2)s1` had an RP-LC retention time of 580 s.

Compound `O=C(Cc1ccsc1)N1CCCC1c1nc(-c2ccc(F)cc2F)no1` (configuration not stated) registered an RP-LC retention time of 922 s.

In the case of `COc1ccc(-c2nc3cnccn3c2Nc2ccc(C(N)=O)cc2)cc1OC`, the RP-LC retention time came out at 593 s.

For `Cc1nc(-c2cnccn2)n(CC(=O)Nc2ccc3c(c2)OCCO3)c(=O)c1C`, the RP-LC retention time was 688 s.

As for `Cc1ccc(Nc2c(-c3ccc(N4CCOCC4)cc3)nc3ccc(C)cn23)cc1`, the RP-LC retention time worked out at 739 s.

Compound `Cc1cnc(CC2CCN(C(=O)Nc3ccc4c(c3)OCCO4)C2)n1C1CC1` (configuration not stated) showed an RP-LC retention time of 612 s.

On to `Cc1ccc2nc3sc(C(=O)NCC4COc5ccccc5O4)cc3c(=O)n2c1` (configuration not stated), for which the RP-LC retention time came to 819 s.

With `CCCc1ccc(S(=O)(=O)N2CCN(c3cnn4c(C5CC5)nnc4c3)CC2)cc1`, the RP-LC retention time amounted to 856 s.

For the compound `Cc1ccc(-c2nnc(C)c(NCc3ccccn3)n2)cc1`, the RP-LC retention time is 605 s.

`Cc1cc(=O)n(CC(=O)NC(C)CCc2ccccc2)c(N2CCOCC2)n1` (configuration not stated) displayed an RP-LC retention time of 713 s.

In the case of `COc1ccc(S(=O)(=O)Cc2nc(-c3ccc(Br)cc3)no2)cc1`, the RP-LC retention time came out at 1040 s.

In turn, `COc1ccc(CNC(=O)N2CCC(N3CCN(Cc4ccccc4)C(=O)C3=O)CC2)cc1` returned an RP-LC retention time of 702 s.

`Cc1cc(=O)n(CC(=O)Nc2cc(C)on2)c(N2CCOCC2)n1` had an RP-LC retention time of 592 s.

Consider `CCOC(=O)C(C)Oc1cccc2c(=O)n(CC(=O)NCc3ccco3)ccc12` (configuration not stated), for which the RP-LC retention time stood at 725 s.

`Cc1nn(-c2ccccc2)c(C)c1S(=O)(=O)N1CCC(C(=O)NCCN2CCCCCC2)CC1` showed an RP-LC retention time of 672 s.

The compound `COc1cc(OC)cc(C(=O)N2CCc3cc(-c4csc(C)n4)ccc32)c1` showed an RP-LC retention time of 977 s.

`Cc1cnc(-c2ccccc2)n1C1CN(Cc2cccc(C#N)c2)C1`: the RP-LC retention time worked out at 559 s.

As for `O=C(CSc1ncnc2c1oc1ccccc12)Nc1ccc(F)cc1F`, the RP-LC retention time amounted to 934 s.

`O=C(O)c1cccc(Nc2c(-c3ccc(F)cc3)nc3cnccn23)c1`: the RP-LC retention time turned out to be 702 s.

Compound `CCc1ccc(NC(=O)Cc2nc(C)c(C(=O)NCC(C)C)s2)cc1` registered an RP-LC retention time of 868 s.

`CC(C)NC(=O)c1ccc(-c2nc3cc(NS(=O)(=O)CCc4ccccc4)ccc3n2C)cc1` showed an RP-LC retention time of 694 s.

Compound `O=C(N1CCN(c2cc(-c3ccc(Cl)cc3)[nH]n2)CC1)C1(c2ccccc2)CC1` gave an RP-LC retention time of 924 s.

Regarding `CCCn1c(=O)sc2cc(S(=O)(=O)N3CCC(C(=O)Nc4cc(C)cc(C)c4)CC3)ccc21`, the RP-LC retention time was 1060 s.

`COC(=O)c1c(C)[nH]c(C(=O)N2CCCC(C(=O)NCCCN3CCCC3)C2)c1C` (configuration not stated) yielded an RP-LC retention time of 584 s.

Turning to `CC(C)n1cnc(S(=O)(=O)N2CCC(C(=O)Nc3cccc(-c4ccno4)c3)CC2)c1`, the RP-LC retention time was determined as 753 s.

`Cc1nc2ccn(Cc3ccco3)c(=O)c2cc1C(=O)N1CCN(c2ccccn2)CC1` showed an RP-LC retention time of 602 s.

As to `COC(=O)c1cnc2nc(C)ccc2c1Nc1cc(OC)cc(OC)c1`, the RP-LC retention time amounted to 735 s.

As for `CCN(C(=O)C(=O)c1c(C)[nH]c2ccccc12)c1ccccc1`, the RP-LC retention time is 809 s.

`COc1ccc(-c2nc(C3CC(=O)N(c4ccc(OC)c(OC)c4)C3)no2)c(OC)c1` (configuration not stated) returned an RP-LC retention time of 797 s.

For the compound `Cc1ccc(C(=O)NC(C)CCc2ccccc2)cc1NC(=O)C1=CSCCO1` (configuration not stated), the RP-LC retention time turned out to be 955 s.

`COc1ccc(NC(=O)Cc2csc3nc(-c4ccccc4)cn23)cc1` yielded an RP-LC retention time of 751 s.

`CCOC(=O)c1c(C)oc2nc(C)nc(NCc3cccc(Cl)c3)c12` gave an RP-LC retention time of 1330 s.
